Data set [1] relates to A2780. As to the kind of experiment: Antitumor activity against human A2780 cells xenografted in BALB/c […] mouse assessed as reduction in DYRK1A autophosphorylation of S520 residue at 75 mg/kg, po measured after 6 hrs by western blotting analysis relative to control. More on the design: scale not given: the % may be the effect or the level left. In kind it is functional. (In xenograft studies the graft and the host belong to different species.)

Data set [2] relates to A2780. Description: cells. Conditions: Homo sapiens, A2780, 120 h.
In another data set the test system is RS4-11. As to the kind of experiment: Antitumor activity against human RS4-11 cells xenografted in BALB/c nu/nu mouse assessed as reduction in DYRK1A autophosphorylation of S520 residue at 6.25 mg/kg, po measured after 2 hrs by western blotting analysis relative to control. In kind it is functional. More on the design: scale not given: the % may be the effect or the level left.

Another data set has as its system SK-N-MC. As to the kind of experiment: cells. The note with it: Homo sapiens, 120 h.
In data set [3] the test system is A2780. As to the kind of experiment: Antitumor activity against human A2780 cells xenografted in BALB/c nu/nu mouse assessed as reduction in DYRK1A autophosphorylation of S520 residue at 18.75 mg/kg, po measured after 6 hrs by western blotting analysis relative to control. In kind it is functional. More on the design: scale not given: the % may be the effect or the level left.

Data set [4] is described as follows: Plasma clearance in BALB/c nu/nu mouse at 3 mg/kg, po. In kind it is ADME, organism-based.

A word on the IC50: it is the concentration at which inhibition is half-maximal. The term CL/F denotes the apparent clearance, not corrected for the fraction that reaches the circulation. As for `Cc1nc2ccc(-c3cc(N)nc(N)c3)nc2n1C1CC1`, the values for the Activity in the data set with A2780 [1], in the data set with RS4-11 and in the data set with A2780 [3] were 92%, 77% and 80%, respectively. Besides, the IC50 in the data set with A2780 [2] came to 1540 nM; in the data set on SK-N-MC, 958 nM. Moreover, the CL/F in data set [4] was 226 mL/min/kg.

These data come from ChEMBL document CHEMBL5042474, “Structure-Guided Discovery of Potent and Selective DYRK1A Inhibitors” (J Med Chem, 2021).
